Experimental data: patent publication US12077503B2, “Substituted cyclic amides and their use as herbicides” (FMC CORPORATION, priority 2015, dated 2024)

Assays:
Type in all cases: in vivo
corn (Zea mays) = test: Test A postemergence; settings: Zea mays, post-emergence, 240 h, Postemergence; for plant injury at 125 g/ha: 125 g ai/ha, visual rating about 10 d after treatment, read-out: Corn plant response rating (0 to 100 scale); for Corn plant response rating (crop injury, 0 = no effect, 100 = complete kill) at 500 g/ha: 500 g ai/ha, visual injury, 0 to 100 scale (0 no effect, 100 complete control), approx. 10 d
How it was run: (§1)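 Preemergence soil spray on seeded pots or post-emergence spray on 1–2 leaf plants, in loam–sand blend. Greenhouse ~10 d. Visual rating 0–100 against untreated plants.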

[1] = system: pigweed (Amaranthus retroflexus); test: Test A postemergence; settings: Amaranthus retroflexus, post-emergence, 240 h, Postemergence; for pest or weed control at 125 g/ha: 125 g ai/ha, visual rating about 10 d after treatment, read-out: Pigweed plant response rating (0 to 100 scale); for pest or weed control at 500 g/ha: 500 g ai/ha, visual injury, 0 to 100 scale (0 no effect, 100 complete control), approx. 10 d, read-out: Plant response rating, Pigweed
How it was run: as §1

[2] = system: giant foxtail (Setaria faberii); test: Test A postemergence; settings: Setaria faberi, post-emergence, 240 h, Postemergence; for pest or weed control at 125 g/ha: 125 g ai/ha, visual rating about 10 d after treatment, read-out: Foxtail, Giant plant response rating (0 to 100 scale); for pest or weed control at 500 g/ha: 500 g ai/ha, visual injury, 0 to 100 scale (0 no effect, 100 complete control), approx. 10 d, read-out: Plant response rating, Foxtail, Giant
How it was run: as §1

[3] = system: barnyardgrass (Echinochloa crus-galli); test: Test A postemergence; settings: Echinochloa crus-galli, post-emergence, 240 h, Postemergence; for pest or weed control at 125 g/ha: 125 g ai/ha, visual rating about 10 d after treatment, read-out: Barnyardgrass plant response rating (0 to 100 scale, 0 no effect, 100 complete control); for pest or weed control at 500 g/ha: 500 g ai/ha, visual injury, 0 to 100 scale (0 no effect, 100 complete control), approx. 10 d, read-out: Plant response rating, Barnyardgrass
How it was run: as §1

[4] = system: pigweed (Amaranthus retroflexus); test: Test A preemergence; settings: Amaranthus retroflexus, pre-emergence, 240 h, 0 to 100 scale (0 no effect, 100 complete control), read-out: Plant response rating, Pigweed; for pest or weed control at 500 g/ha: 500 g ai/ha, preemergence; for pest or weed control at 125 g/ha: Preemergence, 125 g ai/ha
[5] = system: giant foxtail (Setaria faberii); test: Test A preemergence; settings: Setaria faberi, pre-emergence, 240 h, 0 to 100 scale (0 no effect, 100 complete control), read-out: Plant response rating, Foxtail, Giant; for pest or weed control at 500 g/ha: 500 g ai/ha, preemergence; for pest or weed control at 125 g/ha: Preemergence, 125 g ai/ha
How it was run: as §1

[6] = system: barnyardgrass (Echinochloa crus-galli); test: Test A preemergence; settings: Echinochloa crus-galli, pre-emergence, 240 h, 0 to 100 scale (0 no effect, 100 complete control), read-out: Plant response rating, Barnyardgrass; for pest or weed control at 500 g/ha: 500 g ai/ha, preemergence; for pest or weed control at 125 g/ha: Preemergence, 125 g ai/ha
How it was run: as §1

N#Cc1ccc(NC(=O)C2C(=O)NCC2c2ccccc2)cc1 (centres unmarked) [Compound 1355]
0%: plant injury at 125 g/ha (corn (Zea mays)) | Corn plant response rating (crop injury, 0 = no effect, 100 = complete kill) at 500 g/ha (corn (Zea mays)) | pest or weed control at 125 g/ha [1] | pest or weed control at 500 g/ha [1] | pest or weed control at 125 g/ha [2] | pest or weed control at 500 g/ha [2] | pest or weed control at 125 g/ha [3] | pest or weed control at 500 g/ha [3] | pest or weed control at 500 g/ha [4] | pest or weed control at 125 g/ha [4] | pest or weed control at 500 g/ha [5] | pest or weed control at 125 g/ha [5] | pest or weed control at 500 g/ha [6] | pest or weed control at 125 g/ha [6]

O=C1NCC(c2ccccc2)C1C(=O)Nc1cccnc1 (centres unmarked) [Compound 1356]
0%: plant injury at 125 g/ha (corn (Zea mays)) | Corn plant response rating (crop injury, 0 = no effect, 100 = complete kill) at 500 g/ha (corn (Zea mays)) | pest or weed control at 125 g/ha [1] | pest or weed control at 500 g/ha [1] | pest or weed control at 125 g/ha [2] | pest or weed control at 500 g/ha [2] | pest or weed control at 125 g/ha [3] | pest or weed control at 500 g/ha [3] | pest or weed control at 500 g/ha [4] | pest or weed control at 125 g/ha [4] | pest or weed control at 500 g/ha [5] | pest or weed control at 125 g/ha [5] | pest or weed control at 500 g/ha [6] | pest or weed control at 125 g/ha [6]

O=C1NCC(c2ccccc2)C1C(=O)Nc1ccccc1Oc1ccccc1 (centres unmarked) [Compound 1357]
0%: plant injury at 125 g/ha (corn (Zea mays)) | Corn plant response rating (crop injury, 0 = no effect, 100 = complete kill) at 500 g/ha (corn (Zea mays)) | pest or weed control at 125 g/ha [1] | pest or weed control at 500 g/ha [1] | pest or weed control at 125 g/ha [2] | pest or weed control at 500 g/ha [2] | pest or weed control at 125 g/ha [3] | pest or weed control at 500 g/ha [3] | pest or weed control at 500 g/ha [4] | pest or weed control at 125 g/ha [4] | pest or weed control at 500 g/ha [5] | pest or weed control at 125 g/ha [5] | pest or weed control at 500 g/ha [6] | pest or weed control at 125 g/ha [6]

O=C1NCC(c2ccccc2)C1C(=O)Nc1ccccc1 (centres unmarked) [Compound 1358]
0%: plant injury at 125 g/ha (corn (Zea mays)) | Corn plant response rating (crop injury, 0 = no effect, 100 = complete kill) at 500 g/ha (corn (Zea mays)) | pest or weed control at 125 g/ha [1] | pest or weed control at 500 g/ha [1] | pest or weed control at 125 g/ha [2] | pest or weed control at 500 g/ha [2] | pest or weed control at 125 g/ha [3] | pest or weed control at 500 g/ha [3] | pest or weed control at 500 g/ha [4] | pest or weed control at 125 g/ha [4] | pest or weed control at 500 g/ha [5] | pest or weed control at 125 g/ha [5] | pest or weed control at 500 g/ha [6] | pest or weed control at 125 g/ha [6]
